From publication PMC4666608, “Metabolic Profiling of Chicken Embryos Exposed to Perfluorooctanoic Acid (PFOA) and Agonists to Peroxisome Proliferator-Activated Receptors” (PLoS ONE, 2015)
Marks after values point to notes of the source that are not given here.

Test system: chicken embryos
Assay: Metabolic profiling of allantoic fluid (GC-MS, LC-MS, OPLS-DA)
Assay type: in vivo, Gallus gallus domesticus
Conditions: for Mean concentration relative to control, feature Win004_C08 / Mean concentration relative to control, feature Win005_C07 / Mean concentration relative to control, feature Win008_C06 / Mean concentration relative to control, feature Win022_C01 / Mean concentration relative to control, feature Win023_C06 / Mean concentration relative to control, feature win006_C01 / Mean concentration relative to control, feature Win008_C07 / Mean concentration relative to control, feature Win023_C03 / Mean concentration relative to control, feature Win007_C09 / Mean concentration relative to control, feature Win008_C05 / Mean concentration relative to control, feature Win018_C04 / Mean concentration relative to control, feature Win007_C03 / Mean concentration relative to control, feature Win042_C02 / Mean concentration relative to control, feature Win009_C03 / Mean concentration relative to control, feature Win008_C04 / Mean concentration relative to control, feature Win005_C03 / Mean concentration relative to control, feature Win013_C05: GC; for Mean concentration relative to control, feature Win008_C07: tentative 1-Aminocyclopropanecarboxylic acid; for Mean concentration relative to control, feature Win023_C03: tentative 2-Oxoglutaric acid; for Mean concentration relative to control, feature Win007_C09 / Mean concentration relative to control, feature Win008_C05: tentative 2-Oxovaleric acid; for Mean concentration relative to control, feature Win018_C04: tentative 3-Amino-2-piperidone; for Mean concentration relative to control, feature Win007_C03: tentative 3-Hydroxybutanoic acid; for Mean concentration relative to control, feature Win042_C02: tentative Cystathionine; for Mean concentration relative to control, feature Win009_C03: tentative Ketoleucine; for Mean concentration relative to control, feature Win008_C04: tentative Malonic acid; for Mean concentration relative to control, feature Win005_C03: tentative Oxalic acid; for Mean concentration relative to control, feature Win013_C05: tentative Succinic acid
Method: Controls were injected with 20 μL vehicle only (DMSO).
Plasma was collected and stored at -70°C.
Metabolites in allantoic fluid and blood plasma were analyzed using gas chromatography-mass spectrometry (GC-MS) and liquid chromatography-mass spectrometry (LC-MS) as described in S1 Methods. Prior to GC-MS and LC-MS analysis, allantoic fluid (100 μL) and blood plasma (50 μL) were extracted. To each sample, 900 μL (allantoic fluid) or 450 μL (blood plasma) of extraction buffer (90/10 v/v methanol:water) including all internal standards were added. Standards for GC-MS were proline, succinic acid, glutamic acid, salicylic acid, alpha-ketoglutarate, putrescine, myristic acid, hexadecanoic acid, cholesterol, and sucrose. Standards for LC-MS were Val-Tyr-Val, Leu-enkephalin, sulfadimethoxine and reserpine. Samples were homogenized by shaking in a bead mill at a frequency of 30 Hz for 3 minutes and proteins were precipitated at +4°C on ice. The samples were centrifuged at +4°C, 14000 rpm, for 10 min. Then, 200 μL supernatant was transferred to a GC microvial and 200 μL was transferred to an LC microvial, and solvents were evaporated. Samples from the four replicate experiments were analyzed using in chronological order and within each replicate experiment the run order of the individual samples was randomized.
Multivariate statistical analyses of metabolite profiles were performed using the software package SIMCA-P version 13.0 (Umetrics, Umeå, Sweden). Data was centered and scaled to variance 1 (UV scaling) prior to modelling. To reduce unintended systematic variation caused by sample processing and instrument drift, GC-MS and LC-MS metabolite amounts (expressed as the area under the chromatographic peak) were normalized by Orthogonal Partial Least Squares analysis (O2PLS) prior to multivariate data analysis. O2PLS finds common (predictive) and unique (orthogonal) variation in two data matrices. If applied to find the common variation between the data matrix containing the measured metabolite concentrations and a matrix containing only the internal standards, the only common (predictive) variation expected is due to the unintended systematic variation. By deleting the contribution of the predictive latent variables, that variation can be removed from the data. Models obtained after this normalization contain in general less latent variables, and this simplification helps when deciding on the number of latent variables to be used. Following normalization, GC-MS and LC-MS data were analyzed together. Initially, a global Principal Component Analysis (PCA) was performed to get an overview of groups and trends and to identify outliers. Projections to latent structures by means of Orthogonal Partial Least Squares Discriminant Analysis (OPLS-DA) was used to model the relationship between the X-matrix (metabolite concentrations) and the Y matrix (class, i.e. exposure group or sex), and to find x-variables that were related to class belonging. OPLS-DA is a supervised prediction and regression method that rotates the projection plane to find the maximum covariance between the data and the class assignment. All groups were first analyzed together in a 5-class OPLS-DA and then each exposure group was analyzed against the control group in a 2-class OPLS-DA. Sex differences were analyzed both using the whole data set and in each group separately using 2-class OPLS-DA, with females and males as the two classes. Only variables with 80% or more nonzero values were included in the statistical models. […] The validity of each model was also checked using CV-ANOVA (ANOVA of the cross-validated residuals). A significance level of p < 0.05 was used. For each model, R ^2 X, R ^2 Y and Q ^2 values were calculated, where R ^2 X is a measure of the fraction of x variation modeled in the extracted latent variables, R ^2 Y is a measure of the fraction of y variation modeled and Q ^2 is an estimate of the predictive ability of the model and is calculated by cross-validation. […]

O=C(O)C(F)(F)C(F)(F)C(F)(F)C(F)(F)C(F)(F)C(F)(F)C(F)(F)F [PFOA, perfluorooctanoic acid]
Mean concentration relative to control, feature Win004_C08 (PFOA 50 μg/egg): 1.0
Mean concentration relative to control, feature Win005_C07 (PFOA 50 μg/egg): 1.0
Mean concentration relative to control, feature Win008_C06 (PFOA 50 μg/egg): 1.0
Mean concentration relative to control, feature Win022_C01 (PFOA 50 μg/egg): 1.0
Mean concentration relative to control, feature Win023_C06 (PFOA 50 μg/egg): 0.8
Mean concentration relative to control, feature win006_C01 (PFOA 50 μg/egg): 1.0
Mean concentration relative to control, feature Win008_C07 (PFOA 50 μg/egg): 1.1
Mean concentration relative to control, feature Win023_C03 (PFOA 50 μg/egg): 1.0
Mean concentration relative to control, feature Win007_C09 (PFOA 50 μg/egg): 1.0
Mean concentration relative to control, feature Win008_C05 (PFOA 50 μg/egg): 1.0
Mean concentration relative to control, feature Win018_C04 (PFOA 50 μg/egg): 1.0
Mean concentration relative to control, feature Win007_C03 (PFOA 50 μg/egg): 1.0
Mean concentration relative to control, feature Win042_C02 (PFOA 50 μg/egg): 1.1
Mean concentration relative to control, feature Win009_C03 (PFOA 50 μg/egg): 0.9
Mean concentration relative to control, feature Win008_C04 (PFOA 50 μg/egg): 1.1
Mean concentration relative to control, feature Win005_C03 (PFOA 50 μg/egg): 0.9
Mean concentration relative to control, feature Win013_C05 (PFOA 50 μg/egg): 1.0
Mean concentration relative to control, feature Win004_C08 (PFOA 250 μg/egg): 1.0
Mean concentration relative to control, feature Win005_C07 (PFOA 250 μg/egg): 1.0
Mean concentration relative to control, feature Win008_C06 (PFOA 250 μg/egg): 1.2
Mean concentration relative to control, feature Win022_C01 (PFOA 250 μg/egg): 1.1
Mean concentration relative to control, feature Win023_C06 (PFOA 250 μg/egg): 1.1
Mean concentration relative to control, feature win006_C01 (PFOA 250 μg/egg): 1.0
Mean concentration relative to control, feature Win008_C07 (PFOA 250 μg/egg): 1.0
Mean concentration relative to control, feature Win023_C03 (PFOA 250 μg/egg): 1.1
Mean concentration relative to control, feature Win007_C09 (PFOA 250 μg/egg): 1.0
Mean concentration relative to control, feature Win008_C05 (PFOA 250 μg/egg): 1.0
Mean concentration relative to control, feature Win018_C04 (PFOA 250 μg/egg): 1.1
Mean concentration relative to control, feature Win007_C03 (PFOA 250 μg/egg): 1.0
Mean concentration relative to control, feature Win042_C02 (PFOA 250 μg/egg): 1.3
Mean concentration relative to control, feature Win009_C03 (PFOA 250 μg/egg): 1.0
Mean concentration relative to control, feature Win008_C04 (PFOA 250 μg/egg): 1.1
Mean concentration relative to control, feature Win005_C03 (PFOA 250 μg/egg): 0.9
Mean concentration relative to control, feature Win013_C05 (PFOA 250 μg/egg): 1.1
Mean concentration relative to control, feature 134.0239@1.1350567 (LC, PFOA 50 μg/egg): 1.2
Mean concentration relative to control, feature 145.0538@3.072527 (LC, PFOA 50 μg/egg): 1.0
Mean concentration relative to control, feature 147.0328@3.0722888 (LC, PFOA 50 μg/egg): 1.0
Mean concentration relative to control, feature 160.0323@1.1950632 (LC, PFOA 50 μg/egg): 1.0
Mean concentration relative to control, feature 173.0488@3.0734746 (LC, PFOA 50 μg/egg): 1.0
Mean concentration relative to control, feature 176.0952@1.3890611 (LC, PFOA 50 μg/egg): 0.6*
Mean concentration relative to control, feature 178.0428@1.7582192 (LC, PFOA 50 μg/egg): 0.9
Mean concentration relative to control, feature 180.0048@4.421465 (LC, PFOA 50 μg/egg): 1.0
Mean concentration relative to control, feature 189.1159@1.9209185 (LC, PFOA 50 μg/egg): 0.9
Mean concentration relative to control, feature 197.0639@2.1181405 (LC, PFOA 50 μg/egg): 1.0
Mean concentration relative to control, feature 201.012@3.046474 (LC, PFOA 50 μg/egg): 1.0
Mean concentration relative to control, feature 202.0429@2.9548414 (LC, PFOA 50 μg/egg): 1.0
Mean concentration relative to control, feature 205.0533@4.421879 (LC, PFOA 50 μg/egg): 1.0
Mean concentration relative to control, feature 214.016@2.1190732 (LC, PFOA 50 μg/egg): 1.1
Mean concentration relative to control, feature 226.0107@4.421457 (LC, PFOA 50 μg/egg): 1.0
Mean concentration relative to control, feature 236.0816@3.0720985 (LC, PFOA 50 μg/egg): 1.0
Mean concentration relative to control, feature 241.0551@2.3510706 (LC, PFOA 50 μg/egg): 0.9
Mean concentration relative to control, feature 243.1118@2.1537287 (LC, PFOA 50 μg/egg): 1.0
Mean concentration relative to control, feature 244.9972@4.421603 (LC, PFOA 50 μg/egg): 1.0
Mean concentration relative to control, feature 245.1563@2.2907295 (LC, PFOA 50 μg/egg): 0.8*
Mean concentration relative to control, feature 250.0981@3.072492 (LC, PFOA 50 μg/egg): 1.0
Mean concentration relative to control, feature 262.0978@2.7961144 (LC, PFOA 50 μg/egg): 1.0
Mean concentration relative to control, feature 263.0855@2.2847009 (LC, PFOA 50 μg/egg): 1.0
Mean concentration relative to control, feature 270.0441@1.1407775 (LC, PFOA 50 μg/egg): 0.8
Mean concentration relative to control, feature 278.0928@3.0723689 (LC, PFOA 50 μg/egg): 1.0
Mean concentration relative to control, feature 279.1248@2.796395 (LC, PFOA 50 μg/egg): 1.0
Mean concentration relative to control, feature 280.1425@2.730277 (LC, PFOA 50 μg/egg): 1.0
Mean concentration relative to control, feature 288.1166@2.9551322 (LC, PFOA 50 μg/egg): 1.1
Mean concentration relative to control, feature 289.1012@3.249983 (LC, PFOA 50 μg/egg): 1.0
Mean concentration relative to control, feature 289.173@7.5030584 (LC, PFOA 50 μg/egg): 1.1
Mean concentration relative to control, feature 294.1242@2.3692534 (LC, PFOA 50 μg/egg): 1.0
Mean concentration relative to control, feature 302.0508@3.0722616 (LC, PFOA 50 μg/egg): 1.0
Mean concentration relative to control, feature 305.1682@5.353517 (LC, PFOA 50 μg/egg): 0.8*
Mean concentration relative to control, feature 305.1684@5.2955093 (LC, PFOA 50 μg/egg): 0.8
Mean concentration relative to control, feature 308.073@4.4211636 (LC, PFOA 50 μg/egg): 1.0
Mean concentration relative to control, feature 310.1181@1.5090439 (LC, PFOA 50 μg/egg): 1.0
Mean concentration relative to control, feature 316.0389@3.0725708 (LC, PFOA 50 μg/egg): 1.0
Mean concentration relative to control, feature 320.0626@3.0729218 (LC, PFOA 50 μg/egg): 1.0
Mean concentration relative to control, feature 325.1114@2.1190624 (LC, PFOA 50 μg/egg): 0.9
Mean concentration relative to control, feature 325.1115@2.3554378 (LC, PFOA 50 μg/egg): 0.9
Mean concentration relative to control, feature 333.1335@2.8639288 (LC, PFOA 50 μg/egg): 0.9
Mean concentration relative to control, feature 333.2005@6.5291867 (LC, PFOA 50 μg/egg): 0.9
Mean concentration relative to control, feature 335.1866@4.508565 (LC, PFOA 50 μg/egg): 1.0
Mean concentration relative to control, feature 337.1651@1.8737898 (LC, PFOA 50 μg/egg): 0.9
Mean concentration relative to control, feature 344.1424@2.348947 (LC, PFOA 50 μg/egg): 0.9
Mean concentration relative to control, feature 348.0553@3.0730357 (LC, PFOA 50 μg/egg): 1.0
Mean concentration relative to control, feature 349.1651@2.4087605 (LC, PFOA 50 μg/egg): 0.9
Mean concentration relative to control, feature 357.1997@6.9691257 (LC, PFOA 50 μg/egg): 0.9
Mean concentration relative to control, feature 371.1513@3.0009465 (LC, PFOA 50 μg/egg): 1.0
Mean concentration relative to control, feature 375.1819@3.672254 (LC, PFOA 50 μg/egg): 0.9
Mean concentration relative to control, feature 394.167@3.9552917 (LC, PFOA 50 μg/egg): 0.8
Mean concentration relative to control, feature 414.1482@2.118972 (LC, PFOA 50 μg/egg): 1.0
